Read-outs that look alike come from different tables or passages of the source.
Legend:
[1] = PBS, aqueous buffer
[2] = human, serum
[3] = Stability in rat plasma; settings: % of unmodified drug after 120 min in plasma
[4] = biological target: KIT (Homo sapiens (Human), UniProt P10721); assay: Kinase screening assay (IC50)
[5] = biological target: mTOR (Homo sapiens (Human), UniProt P42345); assay: Kinase screening assay (IC50); assay type: biochemical
[6] = biological target: RET (Homo sapiens (Human), UniProt P07949); assay: Kinase screening assay (IC50)
[7] = biological target: FGR (Homo sapiens (Human), UniProt P09769); assay: Kinase screening assay (IC50)
[8] = biological target: FYN (Homo sapiens (Human), UniProt P06241); assay: Kinase screening assay (IC50)
[9] = biological target: LCK (Homo sapiens (Human), UniProt P06239); assay: Kinase screening assay (IC50)
[10] = Stability in human plasma; assay type: in vitro ADME; settings: % of unmodified drug after 120 min in plasma
[11] = Stability in mouse plasma; assay type: in vitro ADME; settings: % of unmodified drug after 120 min in plasma
[12] = biological target: LYN (Homo sapiens (Human), UniProt P07948); assay: Kinase screening assay (IC50)
[13] = biological target: T1, hERG channel (Homo sapiens (Human), UniProt Q12809); assay: hERG Safety Assay, Ionworks high-throughput electrophysiology
[14] = biological target: PDGFRa (Homo sapiens (Human), UniProt P16234); assay: Kinase screening assay (IC50); assay type: biochemical
[15] = biological target: CYP2C9 (Homo sapiens (Human), UniProt P11712); assay: CYP P450 inhibition
[16] = rat, serum
[17] = biological target: CYP2D6 (Homo sapiens (Human), UniProt P10635); assay: CYP P450 inhibition
[18] = biological target: HCK (Homo sapiens (Human), UniProt P08631); assay: Kinase screening assay (IC50)
[19] = biological target: CYP1A2 (Homo sapiens (Human), UniProt P05177); assay: in vitro
[20] = biological target: BLK (Homo sapiens (Human), UniProt P51451); assay: Kinase screening assay (IC50)
[21] = biological target: CYP3A4 (Homo sapiens (Human), UniProt P08684); assay: CYP P450 inhibition
[22] = biological target: FRK/PTK5 (Homo sapiens (Human), UniProt P42685); assay: Kinase screening assay (IC50)
[23] = biological target: CYP2C19 (Homo sapiens (Human), UniProt P33261); assay: CYP P450 inhibition
[24] = in vivo; settings: female, mouse
[25] = Liver microsome stability; assay type: in vitro ADME; settings: % of unmodified drug after 30 min incubation with liver microsomes
[26] = mouse, in vivo
[27] = biological target: T1, hERG channel; assay: Predictor hERG Fluorescence Polarization Assay; assay type: binding; settings: fluorescence polarization kit; read-out: hERG channel inhibition IC50
Excerpt: These experiments corroborated the safety of the compounds.

[28] = biological target: YES (Homo sapiens (Human), UniProt P07947); assay: Kinase screening assay (IC50)
[29] = read-out: Kinase Screening (IC50) c-KIT
[30] = read-out: Target inhibition (IC50) KIT, 10 μM ATP
[31] = 10 μM ATP, read-out: Target inhibition (IC50) mTOR
[32] = read-out: Kinase Screening (IC50) mTOR
[33] = read-out: Kinase Screening (IC50) RET
[34] = read-out: Target inhibition (IC50) RET, 10 μM ATP
[35] = read-out: Kinase Screening (IC50) FGR, Src Family
[36] = read-out: Target inhibition (IC50) FGR, 10 μM ATP
[37] = read-out: Kinase Screening (IC50) FYN, Src Family
[38] = read-out: Target inhibition (IC50) FYN, 10 μM ATP
[39] = read-out: Kinase Screening (IC50) LCK, Src Family
[40] = read-out: Target inhibition (IC50) LCK, 10 μM ATP
[41] = read-out: Kinase Screening (IC50) LYN, Src Family
[42] = read-out: Target inhibition (IC50) LYN, 10 μM ATP
[43] = 10 μM ATP, read-out: Target inhibition (IC50) PDGFRa
[44] = read-out: Kinase Screening (IC50) PDGFRa
[45] = read-out: Kinase Screening (IC50) HCK, Src Family
[46] = read-out: Target inhibition (IC50) HCK, 10 μM ATP
[47] = read-out: Kinase Screening (IC50) BLK, Src Family
[48] = read-out: Target inhibition (IC50) BLK, 10 μM ATP
[49] = read-out: Kinase Screening (IC50) FRK, Src Family
[50] = read-out: Target inhibition (IC50) FRK/PTK5, 10 μM ATP

Chain of HCK (P08631 whole entry): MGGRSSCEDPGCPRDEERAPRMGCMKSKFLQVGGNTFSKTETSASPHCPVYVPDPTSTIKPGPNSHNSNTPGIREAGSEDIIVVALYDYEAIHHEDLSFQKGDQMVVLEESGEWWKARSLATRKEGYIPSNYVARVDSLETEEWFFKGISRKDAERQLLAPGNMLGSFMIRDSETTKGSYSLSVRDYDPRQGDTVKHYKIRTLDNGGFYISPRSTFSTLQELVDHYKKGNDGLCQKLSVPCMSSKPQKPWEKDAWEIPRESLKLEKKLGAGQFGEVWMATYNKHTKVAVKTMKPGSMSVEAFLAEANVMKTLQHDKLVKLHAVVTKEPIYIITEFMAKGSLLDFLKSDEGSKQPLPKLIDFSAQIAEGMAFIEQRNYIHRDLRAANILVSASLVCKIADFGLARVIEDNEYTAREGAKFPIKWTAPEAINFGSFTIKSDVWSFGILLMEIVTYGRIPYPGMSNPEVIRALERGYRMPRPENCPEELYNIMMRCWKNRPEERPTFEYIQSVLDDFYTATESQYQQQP
Chain of CYP2C19 (P33261 whole entry): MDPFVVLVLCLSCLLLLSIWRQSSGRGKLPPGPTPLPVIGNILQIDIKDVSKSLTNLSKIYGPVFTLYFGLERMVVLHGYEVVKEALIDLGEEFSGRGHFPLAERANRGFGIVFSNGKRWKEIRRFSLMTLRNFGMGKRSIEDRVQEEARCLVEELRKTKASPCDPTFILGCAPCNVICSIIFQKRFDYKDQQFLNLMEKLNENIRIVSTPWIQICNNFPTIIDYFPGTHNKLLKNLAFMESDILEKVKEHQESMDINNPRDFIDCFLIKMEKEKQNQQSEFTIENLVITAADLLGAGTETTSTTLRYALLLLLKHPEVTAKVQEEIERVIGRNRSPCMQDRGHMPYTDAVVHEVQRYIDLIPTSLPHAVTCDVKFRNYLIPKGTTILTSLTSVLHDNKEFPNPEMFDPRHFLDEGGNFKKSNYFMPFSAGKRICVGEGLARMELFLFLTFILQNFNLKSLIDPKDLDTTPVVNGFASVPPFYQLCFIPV
Chain of CYP2C9 (P11712 whole entry): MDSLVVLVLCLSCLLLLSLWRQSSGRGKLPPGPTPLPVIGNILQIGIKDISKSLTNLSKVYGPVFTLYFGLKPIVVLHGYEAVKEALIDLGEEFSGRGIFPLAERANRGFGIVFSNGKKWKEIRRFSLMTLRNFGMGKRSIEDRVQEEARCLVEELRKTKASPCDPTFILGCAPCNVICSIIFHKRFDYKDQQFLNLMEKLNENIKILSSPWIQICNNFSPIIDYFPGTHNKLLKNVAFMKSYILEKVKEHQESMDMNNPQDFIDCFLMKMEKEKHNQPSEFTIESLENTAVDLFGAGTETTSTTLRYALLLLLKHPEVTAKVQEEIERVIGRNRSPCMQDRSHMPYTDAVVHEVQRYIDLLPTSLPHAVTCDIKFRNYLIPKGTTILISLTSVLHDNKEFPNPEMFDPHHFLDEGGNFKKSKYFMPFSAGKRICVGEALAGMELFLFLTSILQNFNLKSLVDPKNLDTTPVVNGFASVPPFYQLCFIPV
Chain of CYP1A2 (P05177 whole entry): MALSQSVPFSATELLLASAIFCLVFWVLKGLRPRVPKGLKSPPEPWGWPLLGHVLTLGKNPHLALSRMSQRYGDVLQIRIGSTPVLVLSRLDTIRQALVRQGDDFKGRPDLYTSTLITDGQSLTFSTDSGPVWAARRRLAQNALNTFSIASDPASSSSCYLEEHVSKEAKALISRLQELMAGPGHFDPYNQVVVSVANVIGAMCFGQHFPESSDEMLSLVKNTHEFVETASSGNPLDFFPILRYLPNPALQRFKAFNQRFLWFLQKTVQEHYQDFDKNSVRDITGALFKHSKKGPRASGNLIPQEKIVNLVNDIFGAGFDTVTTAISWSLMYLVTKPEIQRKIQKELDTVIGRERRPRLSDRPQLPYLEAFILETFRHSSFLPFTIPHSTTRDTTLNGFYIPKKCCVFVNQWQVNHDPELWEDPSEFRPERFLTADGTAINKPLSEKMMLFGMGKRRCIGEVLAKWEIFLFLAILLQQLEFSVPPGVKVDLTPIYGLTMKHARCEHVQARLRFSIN
Chain of PDGFRa (P16234 24-1089): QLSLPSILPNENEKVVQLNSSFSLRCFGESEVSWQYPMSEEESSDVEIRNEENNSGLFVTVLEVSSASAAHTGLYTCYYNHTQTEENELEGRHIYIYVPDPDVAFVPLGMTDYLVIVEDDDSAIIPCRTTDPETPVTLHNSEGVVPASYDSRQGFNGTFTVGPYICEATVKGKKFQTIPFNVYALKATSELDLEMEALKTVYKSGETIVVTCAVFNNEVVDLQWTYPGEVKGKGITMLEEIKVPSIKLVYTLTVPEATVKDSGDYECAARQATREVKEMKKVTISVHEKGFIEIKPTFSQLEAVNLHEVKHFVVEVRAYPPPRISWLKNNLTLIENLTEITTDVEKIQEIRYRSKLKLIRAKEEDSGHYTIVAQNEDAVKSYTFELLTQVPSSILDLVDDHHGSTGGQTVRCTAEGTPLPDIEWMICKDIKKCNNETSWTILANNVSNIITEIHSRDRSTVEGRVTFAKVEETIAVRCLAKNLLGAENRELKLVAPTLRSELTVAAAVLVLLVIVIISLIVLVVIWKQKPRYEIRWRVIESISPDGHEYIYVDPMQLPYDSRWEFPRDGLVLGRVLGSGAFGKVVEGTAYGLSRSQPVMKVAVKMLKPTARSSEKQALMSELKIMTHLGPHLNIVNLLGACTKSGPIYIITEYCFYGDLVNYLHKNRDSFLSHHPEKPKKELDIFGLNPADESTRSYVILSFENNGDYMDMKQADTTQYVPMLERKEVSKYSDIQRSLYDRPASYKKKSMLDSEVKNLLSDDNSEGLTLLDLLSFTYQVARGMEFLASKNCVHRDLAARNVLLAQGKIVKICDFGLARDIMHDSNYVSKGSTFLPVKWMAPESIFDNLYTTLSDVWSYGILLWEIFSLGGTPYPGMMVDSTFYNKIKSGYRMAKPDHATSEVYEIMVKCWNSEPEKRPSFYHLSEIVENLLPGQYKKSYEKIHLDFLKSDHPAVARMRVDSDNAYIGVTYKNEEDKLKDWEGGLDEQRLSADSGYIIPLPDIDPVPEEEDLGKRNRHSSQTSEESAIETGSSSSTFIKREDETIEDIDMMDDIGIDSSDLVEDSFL
Chain of LYN (P07948 whole entry): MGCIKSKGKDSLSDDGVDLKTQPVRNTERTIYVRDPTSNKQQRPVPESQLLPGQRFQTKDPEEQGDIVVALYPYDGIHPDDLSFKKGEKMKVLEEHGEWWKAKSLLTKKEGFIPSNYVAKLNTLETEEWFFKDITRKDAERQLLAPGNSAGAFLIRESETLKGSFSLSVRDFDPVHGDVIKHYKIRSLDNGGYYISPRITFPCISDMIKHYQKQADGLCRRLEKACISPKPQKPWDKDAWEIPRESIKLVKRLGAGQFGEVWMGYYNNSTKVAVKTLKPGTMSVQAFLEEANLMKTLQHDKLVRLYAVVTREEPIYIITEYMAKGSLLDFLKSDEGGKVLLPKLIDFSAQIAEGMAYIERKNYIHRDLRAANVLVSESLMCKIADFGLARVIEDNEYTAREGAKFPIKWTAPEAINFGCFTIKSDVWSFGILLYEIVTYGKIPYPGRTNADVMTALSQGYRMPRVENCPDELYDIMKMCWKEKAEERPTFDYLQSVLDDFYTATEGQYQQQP
Chain of FRK/PTK5 (P42685 whole entry): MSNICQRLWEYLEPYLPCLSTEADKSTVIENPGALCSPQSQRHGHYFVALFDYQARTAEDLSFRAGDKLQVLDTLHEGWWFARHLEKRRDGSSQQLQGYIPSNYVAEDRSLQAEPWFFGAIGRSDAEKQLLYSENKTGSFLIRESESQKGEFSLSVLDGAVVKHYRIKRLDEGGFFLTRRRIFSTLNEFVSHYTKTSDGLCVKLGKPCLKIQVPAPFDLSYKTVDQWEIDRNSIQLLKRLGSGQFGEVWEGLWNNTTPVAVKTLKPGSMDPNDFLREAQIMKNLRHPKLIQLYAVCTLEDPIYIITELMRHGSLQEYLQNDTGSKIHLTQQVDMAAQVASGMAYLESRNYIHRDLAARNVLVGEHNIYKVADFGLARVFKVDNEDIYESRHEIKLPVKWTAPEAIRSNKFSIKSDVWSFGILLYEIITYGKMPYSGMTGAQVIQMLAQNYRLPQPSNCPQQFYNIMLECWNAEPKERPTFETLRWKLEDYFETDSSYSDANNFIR
Chain of CYP2D6 (P10635 whole entry): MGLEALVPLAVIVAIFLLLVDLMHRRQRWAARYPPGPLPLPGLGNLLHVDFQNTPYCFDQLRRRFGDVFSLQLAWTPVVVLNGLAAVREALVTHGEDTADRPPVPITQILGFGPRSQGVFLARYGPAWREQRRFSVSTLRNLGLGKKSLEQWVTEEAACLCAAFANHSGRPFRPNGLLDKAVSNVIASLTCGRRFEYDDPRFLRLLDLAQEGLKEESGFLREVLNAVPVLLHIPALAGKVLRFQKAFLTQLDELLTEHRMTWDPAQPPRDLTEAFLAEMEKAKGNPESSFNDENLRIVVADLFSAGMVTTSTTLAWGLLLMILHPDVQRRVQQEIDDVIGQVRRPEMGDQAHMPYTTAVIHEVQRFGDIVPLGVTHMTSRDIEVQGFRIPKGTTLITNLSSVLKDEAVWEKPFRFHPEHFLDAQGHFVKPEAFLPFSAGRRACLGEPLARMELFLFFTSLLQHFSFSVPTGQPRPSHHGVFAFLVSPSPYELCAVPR

SMILES	fraction unbound [2]	IC50 [4, 29]	IC50 [4, 30]	IC50 [5, 31]	IC50 [5, 32]	IC50 [6, 33]	IC50 [6, 34]	IC50 [7, 35]	IC50 [7, 36]	IC50 [8, 37]	IC50 [8, 38]	IC50 [9, 39]	IC50 [9, 40]	IC50 [12, 41]	IC50 [12, 42]	IC50 [13]	IC50 [14, 43]	IC50 [14, 44]	inhibition at 10 µM [15]	fraction unbound [16]	further results
Cc1nc(Nc2ncc(C(=O)Nc3c(C)cccc3Cl)s2)cc(N2CCN(CCO)CC2)n1 [Dasatinib, reference compound]	0.06																				solubility [1]: < 0.1 mg/mL
COc1ccc([C@@H]2Sc3ccccc3N(CCN(C)C)C(=O)[C@@H]2OC(C)=O)cc1 [Diltiazem, reference compound]																					Stability in rat plasma [3]: 21.5%
CN(C)C1CCN(CCn2nc(-c3ccc(CC(=O)OC(C)(C)C)cc3)c3c(N)ncnc32)CC1 [Compound 553, tert-butyl 2-[4-[4-amino-1-[2-[4-(dimethylamino)-1-piperidyl]ethyl]pyrazolo[3,4-d]pyrimidin-3-yl]phenyl]acetate]		> 1000 nM	> 1000 nM	> 1000 nM	> 1000 nM	> 1000 nM	> 1000 nM	< 10 nM	< 10 nM	< 10 nM	< 10 nM	< 10 nM	< 10 nM	< 10 nM	< 10 nM	12600 nM	> 1000 nM	> 1000 nM			Stability in rat plasma [3]: 68.2%; Stability in human plasma [10]: 98.3%; Stability in mouse plasma [11]: 70.4%
COc1cc(-c2nn(CCN3CCC(N4CCCCC4)CC3)c3ncnc(N)c23)ccc1NC(=O)OC(C)(C)C [Compound 519, tert-butyl N-[4-[4-amino-1-[2-[4-(1-piperidyl)-1-piperidyl]ethyl]pyrazolo[3,4-d]pyrimidin-3-yl]-2-methoxy-phenyl]carbamate]	0.143	> 1000 nM	> 1000 nM	> 1000 nM	> 1000 nM	> 1000 nM	> 1000 nM	< 10 nM	< 10 nM	< 10 nM	< 10 nM	< 10 nM	< 10 nM	< 10 nM	< 10 nM	12600 nM	> 1000 nM	> 1000 nM	-70.3%	0.106	inhibition at 10 µM [17]: 3%; IC50 [18, 45]: < 10 nM; IC50 [18, 46]: < 10 nM; inhibition at 10 µM [19]: -1.6%; IC50 [20, 47]: < 10 nM; IC50 [20, 48]: < 10 nM; inhibition at 10 µM [21]: -12.1%; IC50 [22, 49]: < 10 nM; IC50 [22, 50]: < 10 nM; inhibition at 10 µM [23]: -3.1%
COc1cc(-c2nn(CCN3CCC(N(C)C)CC3)c3ncnc(N)c23)ccc1CC(=O)OC(C)(C)C [Compound 565, tert-butyl 2-[4-[4-amino-1-[2-[4-(dimethylamino)-1-piperidyl]ethyl]pyrazolo[3,4-d]pyrimidin-3-yl]-2-methoxy-phenyl]acetate]	0.177	> 1000 nM	> 1000 nM	> 1000 nM	> 1000 nM	> 1000 nM	> 1000 nM	< 10 nM	< 10 nM	< 10 nM	< 10 nM	< 10 nM	< 10 nM	< 10 nM	< 10 nM	> 25000 nM	> 1000 nM	> 1000 nM	-35.8%	0.139	Stability in rat plasma [3]: 93.3%^; bioavailability [24]: 52%; half-life [24]: 2 h; bioavailability ([24]; po): 52%; inhibition at 10 µM [17]: 9.4%; inhibition at 10 µM [19]: 4.3%; solubility [1]: > 100 mg/mL; IC50 [20, 47]: < 10 nM; IC50 [20, 48]: < 10 nM; inhibition at 10 µM [21]: 5.7%; Stability in human plasma [10]: 94%; Stability in mouse plasma [11]: 100%; 30 min Liver Microsome stability [25]: 78.7%; IC50 [22, 49]: < 10 nM; IC50 [22, 50]: < 10 nM; inhibition at 10 µM [23]: -0.4%; toxic effects in PK study [26]: no toxic effects
CC1CC(OC(=O)C(O)c2ccccc2)CC(C)(C)N1C (centres unmarked) [Eucatropine, reference compound]																					Stability in human plasma [10]: 10.5%; Stability in mouse plasma [11]: 20.3%
COc1cc(-c2nn(CCN3CCC(N(C)C)CC3)c3ncnc(N)c23)ccc1NCc1ccccc1 [Compound 533, 3-[4-(benzylamino)-3-methoxy-phenyl]-1-[2-[4-(dimethylamino)-1-piperidyl]ethyl]pyrazolo[3,4-d]pyrimidin-4-amine]	0.118	100 to 1000 nM		> 1000 nM	> 1000 nM	> 1000 nM	> 1000 nM	< 10 nM	< 10 nM	< 10 nM	< 10 nM	< 10 nM	< 10 nM	< 10 nM	< 10 nM	2550 nM	> 1000 nM	> 1000 nM	-35.4%	0.106	IC50 [4]: 100 to 1000 nM; inhibition at 10 µM [17]: 7.4%; IC50 [18, 45]: < 10 nM; IC50 [18, 46]: < 10 nM; inhibition at 10 µM [19]: 8.3%; IC50 [20, 47]: < 10 nM; IC50 [20, 48]: < 10 nM; inhibition at 10 µM [21]: 3.1%; 30 min Liver Microsome stability [25]: 98.8%; IC50 [27]: 10000 to 15000 nM; inhibition at 10 µM [23]: 26.8%
COc1cc(-c2nn(CCN3CCC(N4CCCC4)CC3)c3ncnc(N)c23)ccc1NC(=O)OC(C)(C)C [Compound 518, tert-butyl N-[4-[4-amino-1-[2-(4-pyrrolidin-1-yl-1-piperidyl)ethyl]pyrazolo[3,4-d]pyrimidin-3-yl]-2-methoxy-phenyl]carbamate]	0.172	> 1000 nM	> 1000 nM	> 1000 nM	> 1000 nM	> 1000 nM	> 1000 nM	< 10 nM	< 10 nM	< 10 nM	< 10 nM	< 10 nM	< 10 nM	< 10 nM	< 10 nM	20100 nM	> 1000 nM	> 1000 nM	-92.3%	0.134	IC50 ([28]; read-out: Kinase Screening (IC50) YES, Src Family): < 10 nM; IC50 ([28]; read-out: Target inhibition (IC50) YES, 10 μM ATP): < 10 nM; inhibition at 10 µM [17]: 6.7%; IC50 [18, 45]: < 10 nM; IC50 [18, 46]: < 10 nM; inhibition at 10 µM [19]: 6.9%; IC50 [20, 47]: < 10 nM; IC50 [20, 48]: < 10 nM; inhibition at 10 µM [21]: -29.8%; 30 min Liver Microsome stability [25]: 87.0%; IC50 [22, 49]: < 10 nM; IC50 [22, 50]: < 10 nM; inhibition at 10 µM [23]: -6.5%
